Source: patent US20160000796A1, “PHARMACEUTICAL COMPOSITION FOR USE IN PREVENTION OR TREATMENT OF CANCER” (priority 2013, published 2016)

Tests used:
HTLV-1 [1] = experiment: Measurement of amount of virus (HTLV-1 P19 ELISA), MT2; format: cell-based, human T-cell leukemia virus type 1; settings: 100 μM, Day 0, 2, 4, 7, compared among six NRTIs
Experimental: HTLV-1-producing cell lines, MT2 (transformant with HTLV-1, JCRB cell No: JCRB1210) and HUT102 (ATL-derived cell line, ATCC No: TIB-162), were used.
Each nucleoside analogue reverse transcriptase inhibitor was added to the medium for cells at a final concentration of 100 μM. Cells were seeded on a 96-well plate at a concentration of 1×10^4 cells/100 μL/well and cultured for 0 hour (Day 0), 48 hours (2 days), 96 hours (4 days) or 168 hours (7 days). At each time point, the medium was collected. The amount of virus contained in the medium collected at each time point (pg/mL) was measured by HTLV-1 P19 ELISA kit (manufactured by Zeptometrix).

[2] = tested on: SYK-11L (+) (non-virus-producing ATL cell line); experiment: Cellular proliferation (MTS assay), SYK-11L (+); format: cell-based
Experimental: (§1) Each nucleoside analogue reverse transcriptase inhibitor was added to the medium for cells at a final concentration of 100 μM. Cells were seeded on a 96-well plate at a concentration of 1×10^4 cells/100 μL/well and cultured for 4 hours (Day 0), 48 hours (Day 2) or 96 hours (Day 4). A medium added DMSO (solvent control) alone was used as a control. Cellular proliferation was examined by MTS assay. Specifically, after the cells were cultured for a predetermined time, a reagent for cellular proliferation test, Aqueous One Solution Cell Proliferation (trade name, manufactured by Promega), was added to the cells. Four hours later, absorbance at 490 nm was measured. The cellular proliferation was represented by a ratio relative to that of the control (solvent control) on Day 0 that was regarded as 1.
This example used HTLV-1-infected cell lines (non-virus-producing ATL cell lines): ED40515 (−), ED40515 (+), and ATL43T (all were provided by Prof. Michiyuki Maeda who produced the cells); and SYK-11L (+) (prepared in the laboratory of the inventors).
The six types of nucleoside analogue reverse transcriptase inhibitors as used in Example 1 were used and cellular proliferation was examined in the same manner as in Example 1. […]

[3] = tested on: Jurkat (non-HTLV-1-infected cell line); experiment: Cellular proliferation (MTS assay), Jurkat; format: cell-based, human; settings: 100 μM
Experimental: as §1
This example used non-HTLV-1-infected cell lines: Jurkat (cell line derived from human T-cell leukemia, ATCC No: TIB-152), Kit225 (cell line derived from chronic T-cell leukemia, established in the laboratory of the inventors, Blood. 1987 October; 70 (4): 1069-72.), H9 (cell line derived from cutaneous T-cell lymphoma, ATCC No: HTB-176) and SUDHL6 (cell line derived from diffuse B cell lymphoma).
The six types of nucleoside analogue reverse transcriptase inhibitors as used in Example 1 were used and cellular proliferation was examined in the same manner as in Example 1.

Rad51, γH2AX and PARP = experiment: Induction of DNA repair proteins (immunostaining); format: cell-based; settings: ED40515 (−) versus Jurkat; 100 μM; 48 hours
Experimental: To an ATL cell line, ED40515 (−), or a non-ATL cell line, Jurkat, DMSO (solvent control) or abacavir was added at a concentration of 100 μM. The cells were cultured for 48 hours. The cells were fixed on slides, immuno-stained for Rad51, γH2AX and PARP, and observed by a fluorescent microscope. At least 70 cells per group were observed and the ratio of cells positive for each protein was calculated. Rad51, which is a homologue of a RecA protein of Escherichia coli, is involved in repair of double-strand DNA break. γH2AX, which is a phosphorylated histone protein, is involved in repair of double-strand DNA break. PARP, which is a poly(ADP-ribose) synthetase, is involved in repair of single-strand DNA break.

[4] = tested on: non-ATL cell line, Jurkat; experiment: PARP inhibitor combination, cellular proliferation (MTS), Jurkat; format: cell-based, human; settings: abacavir 10, 50 or 100 μM, 48 hours
Experimental: To an ATL cell line, ED40515 (−), or a non-ATL cell line, Jurkat, abacavir was added at a concentration of 0 μM (DMSO, was added instead of abacavir), 10 μM, 50 μM or 100 μM, and further a PARP inhibitor, olaparib, was added at a concentration of 0 μM (DMSO was added instead of olaparib), 1 μM, 10 μM, 100 μM or 1000 μM. The cells were cultured for 48 hours. MTS assay was performed using a reagent for cellular proliferation test, Aqueous One Solution Cell Proliferation (trade name, manufactured by Promega), in the same manner as in Example 1. The cellular proliferation was represented by a ratio relative to that of the control (solvent control) on Day 0 that was regarded as 1.

[5] = tested on: NCI_H522 (lung cancer cell line lacking TDP1 expression); experiment: Cellular proliferation (MTS) of lung cancer cell line NCI_H522; format: cell-based; settings: 100, 200 or 300 μM, 72 hours
Experimental: Lung cancer cell lines lacking TDP1 expression, HOP—62 and NCI_H522, were used. NCI_H1299, a lung cancer cell line expressing TDP1, was used as a control. HOP—62 and NCI_H522 were provided by Dr. Pommier (DNA Repair. 2014 January; 13: 1-9).
Abacavir was added to each of the cell lines at a concentration of 0 μM (DMSO was added instead of abacavir), 100 μM, 200 μM or 300 μM. The cells were seeded on a 96-well plate at a concentration of 3×10^3 cells/100 μL/well and cultured for 4 hours or 72 hours. After the culture of a predetermined time, MTS assay was performed using a reagent for cellular proliferation, test, Aqueous One Solution Cell Proliferation (trade name, manufactured by Promega), in the same manner as in Example 1. The cellular proliferation was represented by a ratio relative to that of the control (solvent control) on Day 0 that was regarded as 100%.

HTLV-1 [6] = settings: Non Patent Literature 5; cited from earlier work

Question: For `Nc1nc(NC2CC2)c2ncn([C@H]3C=C[C@@H](CO)C3)c2n1` [abacavir, (−)-(1S,4R)-4-[2-amino-6-(cyclopropylamino)-9H-purin-9-yl]-2-cyclopentene-1-methanol], which “viral production (amount of virus in the medium)” value (HTLV-1 [1]) is on record?
Answer: The value was “most strongly suppressed”.

Question: And the cellular proliferation ([2]; 100 μM)?
Answer: Its cellular proliferation is “strong suppressive effect”.

Question: What about the “cellular proliferation, dose dependence” value ([2]; 10-100 μM, Day 0, 2, 4) of the same compound?
Answer: Its value is “suppressed cellular proliferation of all the cell lines in a dose-dependent manner”.

Question: And the cellular proliferation [3]?
Answer: The cellular proliferation was “did not exhibit a suppressive effect”.

Question: And the “ratio of PARP positive cells” value (Rad51, γH2AX and PARP)?
Answer: The value was “induces Rad51, γH2AX, and PARP specifically in an ATL cell line”.

Question: And the “ratio of Rad51 positive cells” value (Rad51, γH2AX and PARP)?
Answer: Its value is “induces Rad51, γH2AX, and PARP specifically in an ATL cell line”.

Question: And the “ratio of γH2AX positive cells” value (Rad51, γH2AX and PARP)?
Answer: Its value is “induces Rad51, γH2AX, and PARP specifically in an ATL cell line”.

Question: What about the cellular proliferation [4] of the same compound?
Answer: The cellular proliferation was “did not suppress cellular proliferation”.

Question: What about the cellular proliferation [5] of the same compound?
Answer: Its cellular proliferation is “suppressed cellular proliferation of HOP—62 and NCI_H522 lacking TDP1 expression in a concentration dependent manner”.

Question: And the anti-HTLV-1 effect (HTLV-1 [6])?
Answer: Its anti-HTLV-1 effect is “anti-HTLV-1 effect”.
